Starred links: 1 amine or outer side, 2 acyl side, 3 side chain; linkers in the order of their positions; H or OH if unused. Non-standard residues stand in square brackets, D forms with d. Residues, ends and D or L forms follow the SMILES beside them. *: point of attachment. Lys(Me3) = C[N+](C)(C)CCCC[C@H](N)C(=O)O; Ethylenediamine = C(CN[*:2])N[*:1]; Gly(cPent) = N[C@H](C(=O)O)C1CCCC1; Hydrocinnamoyl = O=C(CCc1ccccc1)*; NBnAla = C[C@H](NCc1ccccc1)C(=O)O; Ala(cPr) = N[C@@H](CC1CC1)C(=O)O; 3Pal = N[C@@H](Cc1cccnc1)C(=O)O; Cha = N[C@@H](CC1CCCCC1)C(=O)O; Gly(cPr) = N[C@H](C(=O)O)C1CC1; Phg = N[C@H](C(=O)O)c1ccccc1; Tle = CC(C)(C)[C@H](N)C(=O)O; Nicotinoyl = O=C(c1cccnc1)*; Tos = Cc1ccc(S(=O)(=O)*)cc1; X5 = c1ccc2[nH]c(N*)nc2c1; X9 = O[C@H]1CCCC[C@@H]1N*; NHCH(CH2OH)2 = OCC(CO)N*; Nle = CCCC[C@H](N)C(=O)O; Cbz = O=C(OCc1ccccc1)*; PhAc = O=C(Cc1ccccc1)*; Boc = CC(C)(C)OC(=O)*; Bz = O=C(c1ccccc1)*; NHCH2CH2OH = OCCN*; X8 = OCC1(N*)CCCC1; X4 = CC(C)C(CO)N*; X1 = CCCC(CO)N*; NHPr = CCCN*
Target: T1, Chromobox protein homolog 7 (Homo sapiens, UniProt O95931)
T1 sequence (O95931 whole entry): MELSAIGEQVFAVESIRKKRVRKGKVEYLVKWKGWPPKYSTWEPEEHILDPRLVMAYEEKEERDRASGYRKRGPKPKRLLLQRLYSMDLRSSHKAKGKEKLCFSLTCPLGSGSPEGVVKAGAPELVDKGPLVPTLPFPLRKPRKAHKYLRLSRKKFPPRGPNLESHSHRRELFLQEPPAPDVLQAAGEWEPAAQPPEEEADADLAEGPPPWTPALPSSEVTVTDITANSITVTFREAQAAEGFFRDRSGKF
Assay: Displacement of FITC-labeled H3K27me3 from CBX7 (unknown origin) after 15 mins by fluorescence polarization assay

Row | SMILES | IC50
1 | CC[C@H](NC(=O)[C@H](Cc1ccccc1)NC(C)=O)C(=O)N[C@@H](CC(C)C)C(=O)N[C@@H](CCCC[N+](C)(C)C)C(=O)N[C@@H](CO)C(N)=O | 39 µM
2 | CC(=O)N[C@@H](Cc1ccccc1)C(=O)N[C@@H](C)C(=O)N[C@@H](CC(C)C)C(=O)N[C@@H](CCCC[N+](C)(C)C)C(=O)N[C@H](CO)C(=O)O | 79 µM
3 | CC(=O)N[C@@H](Cc1ccccc1)C(=O)N[C@@H](C)C(=O)N[C@@H](Cc1ccccc1)C(=O)N[C@@H](CCCC[N+](C)(C)C)C(=O)N[C@@H](CO)C(N)=O (Ac-FAF[Lys(Me3)]S-NH2) | 10.3 µM
4 | CC(=O)N[C@@H](Cc1ccccc1)C(=O)N[C@@H](C)C(=O)N[C@@H](CC(C)C)C(=O)N[C@@H](CCCC[N+](C)(C)C)C(=O)NCCN (Ac-FAL[Lys(Me3)]-Ethylenediamine) | 22 µM
5 | CC(=O)N[C@@H](Cc1ccccc1)C(=O)N[C@@H](C)C(=O)N[C@@H](CC(C)C)C(=O)N[C@@H](CCCC[N+](C)(C)C)C(=O)NCCO (Ac-FAL[Lys(Me3)]-NHCH2CH2OH) | 26 µM
6 | CCCNC(=O)[C@H](CCCC[N+](C)(C)C)NC(=O)[C@H](CC(C)C)NC(=O)[C@H](C)NC(=O)[C@H](Cc1ccccc1)NC(C)=O (Ac-FAL[Lys(Me3)]-NHPr) | 102 µM
7 | CC(=O)N[C@@H](Cc1ccccc1)C(=O)N[C@@H](C)C(=O)N[C@@H](CC(C)C)C(=O)N[C@@H](CCCC[N+](C)(C)C)C(=O)O (Ac-FAL[Lys(Me3)]-OH) | 560 µM
8 | CC(=O)N[C@@H](Cc1ccccc1)C(=O)N[C@@H](C)C(=O)N[C@@H](CC(C)C)C(=O)N[C@@H](CCCC[N+](C)(C)C)C(=O)Nc1nc2ccccc2[nH]1 (Ac-FAL[Lys(Me3)]-X5) | 35 µM
9 | CC(=O)N[C@@H](Cc1ccccc1)C(=O)N[C@@H](C)C(=O)N[C@@H](CC(C)C)C(=O)N[C@@H](CCCC[N+](C)(C)C)C(=O)NCCNC(=O)OC(C)(C)C (Ac-FAL[Lys(Me3)]-{Ethylenediamine-Boc}) | 105 µM
10 | CC(=O)N[C@@H](Cc1ccccc1)C(=O)N[C@@H](C)C(=O)N[C@@H](CC(C)C)C(=O)N[C@@H](CCCC[N+](C)(C)C)C(=O)NC(CO)CO (Ac-FAL[Lys(Me3)]-{NHCH(CH2OH)2}) | 23 µM
11 | CSCC[C@H](NC(=O)[C@H](C)NC(=O)[C@H](Cc1ccccc1)NC(C)=O)C(=O)N[C@@H](CCCC[N+](C)(C)C)C(=O)N[C@@H](CO)C(N)=O (Ac-FAM[Lys(Me3)]S-NH2) | 62 µM
12 | CC(=O)N[C@@H](Cc1ccccc1)C(=O)N[C@@H](C)C(=O)N[C@H](C(=O)N[C@@H](CCCC[N+](C)(C)C)C(=O)N[C@@H](CO)C(N)=O)[C@@H](C)O (Ac-FAT[Lys(Me3)]S-NH2) | 35 µM
13 | CC(=O)N[C@@H](Cc1ccccc1)C(=O)N[C@@H](C)C(=O)N[C@H](C(=O)N[C@@H](CCCC[N+](C)(C)C)C(=O)N[C@@H](CO)C(N)=O)C(C)C (Ac-FAV[Lys(Me3)]S-NH2) | 6.8 µM
14 | CC(=O)N[C@@H](Cc1ccccc1)C(=O)N[C@@H](C)C(=O)N[C@@H](Cc1c[nH]c2ccccc12)C(=O)N[C@@H](CCCC[N+](C)(C)C)C(=O)N[C@@H](CO)C(N)=O (Ac-FAW[Lys(Me3)]S-NH2) | 13 µM
15 | CC(=O)N[C@@H](Cc1ccccc1)C(=O)N[C@@H](C)C(=O)N[C@@H](CC1CC1)C(=O)N[C@@H](CCCC[N+](C)(C)C)C(=O)N[C@@H](CO)C(N)=O (Ac-FA[Ala(cPr)][Lys(Me3)]S-NH2) | 11.2 µM
16 | CC(=O)N[C@@H](Cc1ccccc1)C(=O)N[C@@H](C)C(=O)N[C@@H](CC1CCCCC1)C(=O)N[C@@H](CCCC[N+](C)(C)C)C(=O)N[C@@H](CO)C(N)=O (Ac-FA[Cha][Lys(Me3)]S-NH2) | 8.8 µM
17 | CC(=O)N[C@@H](Cc1ccccc1)C(=O)N[C@@H](C)C(=O)N[C@H](C(=O)N[C@@H](CCCC[N+](C)(C)C)C(=O)N[C@@H](CO)C(N)=O)C1CCCC1 (Ac-FA[Gly(cPent)][Lys(Me3)]S-NH2) | 6 µM
18 | CC(=O)N[C@@H](Cc1ccccc1)C(=O)N[C@@H](C)C(=O)N[C@H](C(=O)N[C@@H](CCCC[N+](C)(C)C)C(=O)N[C@@H](CO)C(N)=O)C1CC1 (Ac-FA[Gly(cPr)][Lys(Me3)]S-NH2) | 21 µM
19 | CCCC[C@H](NC(=O)[C@H](C)NC(=O)[C@H](Cc1ccccc1)NC(C)=O)C(=O)N[C@@H](CCCC[N+](C)(C)C)C(=O)N[C@@H](CO)C(N)=O (Ac-FA[Nle][Lys(Me3)]S-NH2) | 23 µM
20 | CC(=O)N[C@@H](Cc1ccccc1)C(=O)N[C@@H](CO)C(=O)N[C@@H](CC(C)C)C(=O)N[C@@H](CCCC[N+](C)(C)C)C(=O)N[C@@H](CO)C(N)=O (Ac-FSL[Lys(Me3)]S-NH2) | 53 µM
21 | CCCC[C@H](NC(=O)[C@H](Cc1ccccc1)NC(C)=O)C(=O)N[C@@H](CC(C)C)C(=O)N[C@@H](CCCC[N+](C)(C)C)C(=O)N[C@@H](CO)C(N)=O (Ac-F[Nle]L[Lys(Me3)]S-NH2) | 120 µM
22 | CC(=O)N[C@@H](Cc1c[nH]c2ccccc12)C(=O)N[C@@H](C)C(=O)N[C@@H](CC(C)C)C(=O)N[C@@H](CCCC[N+](C)(C)C)C(=O)N[C@@H](CO)C(N)=O (Ac-WAL[Lys(Me3)]S-NH2) | 7.8 µM
23 | CC(=O)N[C@@H](Cc1ccc(O)cc1)C(=O)N[C@@H](C)C(=O)N[C@@H](CC(C)C)C(=O)N[C@@H](CCCC[N+](C)(C)C)C(=O)N[C@@H](CO)C(N)=O (Ac-YAL[Lys(Me3)]S-NH2) | 8.6 µM
24 | CC(C)C[C@H](NC(=O)[C@H](C)NC(=O)c1ccccc1)C(=O)N[C@@H](CCCC[N+](C)(C)C)C(=O)N[C@@H](CO)C(N)=O (Bz-AL[Lys(Me3)]S-NH2) | 57 µM
25 | CC(C)C[C@H](NC(=O)[C@H](C)NC(=O)[C@H](Cc1ccccc1)NC(=O)c1ccccc1)C(=O)N[C@@H](CCCC[N+](C)(C)C)C(=O)N[C@@H](CO)C(N)=O (Bz-FAL[Lys(Me3)]S-NH2) | 8.8 µM
26 | CC(C)C[C@H](NC(=O)[C@H](C)NCc1ccccc1)C(=O)N[C@@H](CCCC[N+](C)(C)C)C(=O)N[C@@H](CO)C(N)=O (H-[NBnAla]L[Lys(Me3)]S-NH2) | > 2000 µM
27 | CC(C)C[C@H](NC(=O)[C@H](C)NC(=O)c1cccnc1)C(=O)N[C@@H](CCCC[N+](C)(C)C)C(=O)N[C@@H](CO)C(N)=O (Nicotinoyl-AL[Lys(Me3)]S-NH2) | 91 µM
28 | CC(C)C[C@H](NC(=O)[C@H](C)NC(=O)CNC(=O)Cc1ccccc1)C(=O)N[C@@H](CCCC[N+](C)(C)C)C(=O)N[C@@H](CO)C(N)=O (PhAc-GAL[Lys(Me3)]S-NH2) | 100 µM

More lines, now with the values ahead:

Row | IC50 | SMILES
29 | 27 µM | CC(=O)N[C@@H](Cc1ccccc1)C(=O)N[C@@H](C)C(=O)N[C@@H](CC(C)C)C(=O)N[C@@H](CCCC[N+](C)(C)C)C(=O)N[C@@H](CO)C(=O)O
30 | > 2000 µM | CC(C)C[C@H](NC(=O)[C@H](C)NCc1ccc(C(=O)O)cc1)C(=O)N[C@@H](CCCC[N+](C)(C)C)C(=O)N[C@@H](CO)C(N)=O
31 | 5.7 µM | CC[C@H](C)[C@H](NC(=O)[C@H](C)NC(=O)[C@H](Cc1ccccc1)NC(C)=O)C(=O)N[C@@H](CCCC[N+](C)(C)C)C(=O)N[C@@H](CO)C(N)=O (Ac-FAI[Lys(Me3)]S-NH2)
32 | 10.1 µM | CC(=O)N[C@@H](Cc1ccccc1)C(=O)N[C@@H](C)C(=O)N[C@@H](CCCCN)C(=O)N[C@@H](CCCC[N+](C)(C)C)C(=O)N[C@@H](CO)C(N)=O (Ac-FAK[Lys(Me3)]S-NH2)
33 | > 500 µM | CCCC(CO)NC(=O)[C@H](CCCC[N+](C)(C)C)NC(=O)[C@H](CC(C)C)NC(=O)[C@H](C)NC(=O)[C@H](Cc1ccccc1)NC(C)=O (stereo not given in full) (Ac-FAL[Lys(Me3)]-X1)
34 | > 250 µM | CC(=O)N[C@@H](Cc1ccccc1)C(=O)N[C@@H](C)C(=O)N[C@@H](CC(C)C)C(=O)N[C@@H](CCCC[N+](C)(C)C)C(=O)NC(CO)C(C)C (stereo not given in full) (Ac-FAL[Lys(Me3)]-X4)
35 | > 250 µM | CC(=O)N[C@@H](Cc1ccccc1)C(=O)N[C@@H](C)C(=O)N[C@@H](CC(C)C)C(=O)N[C@@H](CCCC[N+](C)(C)C)C(=O)NC1(CO)CCCC1 (Ac-FAL[Lys(Me3)]-X8)
36 | > 250 µM | CC(=O)N[C@@H](Cc1ccccc1)C(=O)N[C@@H](C)C(=O)N[C@@H](CC(C)C)C(=O)N[C@@H](CCCC[N+](C)(C)C)C(=O)N[C@H]1CCCC[C@@H]1O (Ac-FAL[Lys(Me3)]-X9)
37 | 11 µM | CC(=O)N[C@@H](Cc1ccccc1)C(=O)N[C@@H](C)C(=O)N[C@@H](Cc1cccnc1)C(=O)N[C@@H](CCCC[N+](C)(C)C)C(=O)N[C@@H](CO)C(N)=O (Ac-FA[3Pal][Lys(Me3)]S-NH2)
38 | 67 µM | CC(=O)N[C@@H](Cc1ccccc1)C(=O)N[C@@H](C)C(=O)N[C@H](C(=O)N[C@@H](CCCC[N+](C)(C)C)C(=O)N[C@@H](CO)C(N)=O)C(C)(C)C (Ac-FA[Tle][Lys(Me3)]S-NH2)
39 | > 500 µM | CC(=O)N[C@@H](Cc1ccccc1)C(=O)N[C@H](C(=O)N[C@@H](CC(C)C)C(=O)N[C@@H](CCCC[N+](C)(C)C)C(=O)N[C@@H](CO)C(N)=O)C(C)C (Ac-FVL[Lys(Me3)]S-NH2)
40 | 26 µM | CC(=O)N[C@H](C(=O)N[C@@H](C)C(=O)N[C@@H](CC(C)C)C(=O)N[C@@H](CCCC[N+](C)(C)C)C(=O)N[C@@H](CO)C(N)=O)c1ccccc1 (Ac-[Phg]AL[Lys(Me3)]S-NH2)
41 | 58 µM | CC(C)C[C@H](NC(=O)[C@H](C)NC(=O)CNC(=O)c1ccccc1)C(=O)N[C@@H](CCCC[N+](C)(C)C)C(=O)N[C@@H](CO)C(N)=O (Bz-GAL[Lys(Me3)]S-NH2)
42 | 58 µM | CC(C)C[C@H](NC(=O)[C@H](C)NC(=O)OCc1ccccc1)C(=O)N[C@@H](CCCC[N+](C)(C)C)C(=O)N[C@@H](CO)C(N)=O (Cbz-AL[Lys(Me3)]S-NH2)
43 | 26 µM | CC(C)C[C@H](NC(=O)[C@H](C)NC(=O)CCc1ccccc1)C(=O)N[C@@H](CCCC[N+](C)(C)C)C(=O)N[C@@H](CO)C(N)=O (Hydrocinnamoyl-AL[Lys(Me3)]S-NH2)
44 | 23 µM | CC(C)C[C@H](NC(=O)[C@H](C)NC(=O)Cc1ccccc1)C(=O)N[C@@H](CCCC[N+](C)(C)C)C(=O)N[C@@H](CO)C(N)=O (PhAc-AL[Lys(Me3)]S-NH2)
45 | > 250 µM | Cc1ccc(S(=O)(=O)N[C@@H](Cc2ccccc2)C(=O)N[C@@H](C)C(=O)N[C@@H](CC(C)C)C(=O)N[C@@H](CCCC[N+](C)(C)C)C(=O)N[C@@H](CO)C(N)=O)cc1 (Tos-FAL[Lys(Me3)]S-NH2)
